Data taken from US20170355705A1 (GlaxoSmithKline Intellectual Property (No.2) Limited, priority 2014, published 2017).

Biological target: T1, SIRT1 (Homo sapiens, UniProt Q96EB6)
T1 sequence (Q96EB6 1-747): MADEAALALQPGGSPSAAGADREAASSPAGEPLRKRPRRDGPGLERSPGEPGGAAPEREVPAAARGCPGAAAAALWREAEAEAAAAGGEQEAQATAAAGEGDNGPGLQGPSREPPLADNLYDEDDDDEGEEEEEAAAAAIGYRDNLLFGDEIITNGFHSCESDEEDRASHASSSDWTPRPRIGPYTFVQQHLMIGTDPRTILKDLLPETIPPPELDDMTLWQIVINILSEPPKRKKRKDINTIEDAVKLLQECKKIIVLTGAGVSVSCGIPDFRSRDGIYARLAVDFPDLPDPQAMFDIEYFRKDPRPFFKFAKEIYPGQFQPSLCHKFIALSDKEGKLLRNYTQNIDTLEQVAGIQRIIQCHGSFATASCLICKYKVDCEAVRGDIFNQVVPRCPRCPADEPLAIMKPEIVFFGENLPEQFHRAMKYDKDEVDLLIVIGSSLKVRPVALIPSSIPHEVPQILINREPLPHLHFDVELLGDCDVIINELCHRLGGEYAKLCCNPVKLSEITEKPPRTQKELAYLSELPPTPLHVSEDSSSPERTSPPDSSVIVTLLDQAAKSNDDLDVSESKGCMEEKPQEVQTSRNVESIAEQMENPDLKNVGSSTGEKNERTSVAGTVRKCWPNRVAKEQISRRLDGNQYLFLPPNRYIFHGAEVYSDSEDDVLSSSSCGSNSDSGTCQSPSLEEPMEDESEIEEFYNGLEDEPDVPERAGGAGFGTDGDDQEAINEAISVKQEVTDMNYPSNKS
Experiment: Trp mass spectrometry assay of SIRT1 activity (EC1.5, percent maximum activation)
Assay type: biochemical
Conditions: Trp mass spectrometry assay; for TRP Activity (EC1.5): EC1.5 = concentration giving 150% activation of SIRT1; for TRP MAX RESP (percent maximum fold activation): percent maximum activation of SIRT1
How it was run: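 Activation values derive from mass-spectrometric measurement of NAD-dependent deacetylation product after a 25 min reaction of bacterially expressed His-tagged SIRT1 with a fluorophore-labelled Trp peptide.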

Compound	TRP Activity (EC1.5)	TRP MAX RESP (percent maximum fold activation)
CNc1cc(-c2ccc3c(n2)N(C(=O)Nc2cnccn2)[C@H]2CCN3C2)ccn1 [Example 144, (4S)-7-(2-(methylamino)pyridin-4-yl)-N-(pyrazin-2-yl)-3,4-dihydro-1,4-methanopyrido[2,3-b][1,4]diazepine-5(2H)-carboxamide]	B (EC1.5 1-25 μM)	A (Fold activation ≧150%)
Cc1cc(-c2ccc3c(n2)N(C(=O)Nc2nccc4[nH]cnc24)[C@H]2CCN3C2)ccn1 [Example 145, (4S)-N-(1H-imidazo[4,5-c]pyridin-4-yl)-7-(2-methylpyridin-4-yl)-3,4-dihydro-1,4-methanopyrido[2,3-b][1,4]diazepine-5(2H)-carboxamide]	B (EC1.5 1-25 μM)	A (Fold activation ≧150%)
O=C(Nc1cnccn1)N1c2nc(-c3ccc(CO)nc3)ccc2N2CC[C@H]1C2 [Example 147, (4S)-7-(6-(hydroxymethyl)pyridin-3-yl)-N-(pyrazin-2-yl)-3,4-dihydro-1,4-methanopyrido[2,3-b][1,4]diazepine-5(2H)-carboxamide]	B (EC1.5 1-25 μM)	A (Fold activation ≧150%)
Cc1cc(-c2ccc3c(n2)N(C(=O)Nc2cnc4c(c2)OCCO4)[C@H]2CCN3C2)ccn1 [Example 148, (4S)-N-(2,3-dihydro-[1,4]dioxino[2,3-b]pyridin-7-yl)-7-(2-methylpyridin-4-yl)-3,4-dihydro-1,4-methanopyrido[2,3-b][1,4]diazepine-5(2H)-carboxamide]	–	A (Fold activation ≧150%)
Cc1cc(-c2ccc3c(n2)N(C(=O)N2CCOCC2)[C@H]2CCN3C2)ccn1 [Example 150, ((4S)-7-(2-methylpyridin-4-yl)-3,4-dihydro-1,4-methanopyrido[2,3-b][1,4]diazepin-5(2H)-yl)(morpholino)methanone]	C (EC1.5>25 μM)	B (Fold Activation <150%)
Cc1cc(-c2ccc3c(n2)N(C(=O)N2CCCCC2)[C@H]2CCN3C2)ccn1 [Example 151, ((4S)-7-(2-methylpyridin-4-yl)-3,4-dihydro-1,4-methanopyrido[2,3-b][1,4]diazepin-5(2H)-yl)(piperidin-1-yl)methanone]	C (EC1.5>25 μM)	B (Fold Activation <150%)
Cc1cc(-c2ccc3c(n2)N(C(=O)Nc2nccc4nccnc24)[C@H]2CCN3C2)ccn1 [Example 152, (4S)-7-(2-methylpyridin-4-yl)-N-(pyrido[3,4-b]pyrazin-5-yl)-3,4-dihydro-1,4-methanopyrido[2,3-b][1,4]diazepine-5(2H)-carboxamide]	B (EC1.5 1-25 μM)	A (Fold activation ≧150%)
Cc1cc(-c2ccc3c(n2)N(C(=O)Nc2cccc4nnc(C)cc24)[C@H]2CCN3C2)ccn1 [Example 153, (4S)-N-(3-methylcinnolin-5-yl)-7-(2-methylpyridin-4-yl)-3,4-dihydro-1,4-methanopyrido[2,3-b][1,4]diazepine-5(2H)-carboxamide]	B (EC1.5 1-25 μM)	A (Fold activation ≧150%)
Cc1cncc(-c2ccc3c(n2)N(C(=O)Nc2cnccn2)[C@H]2CCN3C2)c1 [Example 154, (4S)-7-(5-methylpyridin-3-yl)-N-(pyrazin-2-yl)-3,4-dihydro-1,4-methanopyrido[2,3-b][1,4]diazepine-5(2H)-carboxamide]	B (EC1.5 1-25 μM)	A (Fold activation ≧150%)
Cn1cc(-c2ccc3c(n2)N(C(=O)Nc2cnccn2)[C@H]2CCN3C2)cn1 [Example 155, (4S)-7-(1-methyl-1H-pyrazol-4-yl)-N-(pyrazin-2-yl)-3,4-dihydro-1,4-methanopyrido[2,3-b][1,4]diazepine-5(2H)-carboxamide]	B (EC1.5 1-25 μM)	A (Fold activation ≧150%)
CCc1ccc(-c2ccc3c(n2)N(C(=O)Nc2cnccn2)[C@H]2CCN3C2)cn1 [Example 156, (4S)-7-(6-ethylpyridin-3-yl)-N-(pyrazin-2-yl)-3,4-dihydro-1,4-methanopyrido[2,3-b][1,4]diazepine-5(2H)-carboxamide]	B (EC1.5 1-25 μM)	A (Fold activation ≧150%)
Cc1cc(-c2ccc3c(n2)N(C(=O)Nc2ccc4[nH]ncc4c2)[C@H]2CCN3C2)ccn1 [Example 157, (4S)-N-(1H-indazol-5-yl)-7-(2-methylpyridin-4-yl)-3,4-dihydro-1,4-methanopyrido[2,3-b][1,4]diazepine-5(2H)-carboxamide]	A (EC1.5<1 μM)	A (Fold activation ≧150%)
Cc1cc(-c2ccc3c(n2)N(C(=O)Nc2cccnn2)[C@H]2CCN3C2)ccn1 [Example 158, (4S)-7-(2-methylpyridin-4-yl)-N-(pyridazin-3-yl)-3,4-dihydro-1,4-methanopyrido[2,3-b][1,4]diazepine-5(2H)-carboxamide]	B (EC1.5 1-25 μM)	A (Fold activation ≧150%)
Cc1cc(-c2ccc3c(n2)N(C(=O)Nc2cnccn2)[C@H]2CCN3C2)c(C)cn1 [Example 159, (4S)-7-(2,5-dimethylpyridin-4-yl)-N-(pyrazin-2-yl)-3,4-dihydro-1,4-methanopyrido[2,3-b][1,4]diazepine-5(2H)-carboxamide]	B (EC1.5 1-25 μM)	A (Fold activation ≧150%)
O=C(Nc1cnccn1)N1c2nc(N3CCOCC3)ccc2N2CC[C@H]1C2 [Example 160, (4S)-7-morpholino-N-(pyrazin-2-yl)-3,4-dihydro-1,4-methanopyrido[2,3-b][1,4]diazepine-5(2H)-carboxamide]	B (EC1.5 1-25 μM)	A (Fold activation ≧150%)
CCc1cnc(NC(=O)N2c3nc(-c4ccnc(C)c4)ccc3N3CC[C@H]2C3)cn1 [Example 161, (4S)-N-(5-ethylpyrazin-2-yl)-7-(2-methylpyridin-4-yl)-3,4-dihydro-1,4-methanopyrido[2,3-b][1,4]diazepine-5(2H)-carboxamide]	A (EC1.5<1 μM)	A (Fold activation ≧150%)
Cc1ncc(-c2ccc3c(n2)N(C(=O)Nc2cnccn2)[C@H]2CCN3C2)o1 [Example 162, (4S)-7-(2-methyloxazol-5-yl)-N-(pyrazin-2-yl)-3,4-dihydro-1,4-methanopyrido[2,3-b][1,4]diazepine-5(2H)-carboxamide]	B (EC1.5 1-25 μM)	A (Fold activation ≧150%)
Cc1cc(-c2ccc3c(n2)N(C(=O)Nc2cncnc2)[C@H]2CCN3C2)ccn1 [Example 163, (4S)-7-(2-methylpyridin-4-yl)-N-(pyrimidin-5-yl)-3,4-dihydro-1,4-methanopyrido[2,3-b][1,4]diazepine-5(2H)-carboxamide]	C (EC1.5>25 μM)	A (Fold activation ≧150%)
Cc1cc(-c2ccc3c(n2)N(C(=O)Nc2cnc(C4CC4)cn2)[C@H]2CCN3C2)ccn1 [Example 164, (4S)-N-(5-cyclopropylpyrazin-2-yl)-7-(2-methylpyridin-4-yl)-3,4-dihydro-1,4-methanopyrido[2,3-b][1,4]diazepine-5(2H)-carboxamide]	B (EC1.5 1-25 μM)	A (Fold activation ≧150%)
Cc1ncc(-c2ccc3c(n2)N(C(=O)Nc2cnccn2)[C@H]2CCN3C2)cn1 [Example 165, (4S)-7-(2-methylpyrimidin-5-yl)-N-(pyrazin-2-yl)-3,4-dihydro-1,4-methanopyrido[2,3-b][1,4]diazepine-5(2H)-carboxamide]	B (EC1.5 1-25 μM)	A (Fold activation ≧150%)
Cc1cc(-c2ccc3c(n2)N(C(=O)Nc2cncc(C4CC4)n2)[C@H]2CCN3C2)ccn1 [Example 166, (4S)-N-(6-cyclopropylpyrazin-2-yl)-7-(2-methylpyridin-4-yl)-3,4-dihydro-1,4-methanopyrido[2,3-b][1,4]diazepine-5(2H)-carboxamide]	A (EC1.5<1 μM)	A (Fold activation ≧150%)
